Data taken from PMC7576618 (British Journal of Clinical Pharmacology, 2020).

Key:
[1] = tested on: healthy subjects; test: SAD study: safety and tolerability; format: in vivo, human
[2] = tested on: healthy subjects; test: MAD study: safety and tolerability; format: in vivo, human
[3] = monkeys; cited from earlier work
[4] = SAD Parts A and C, fasted conditions (total TS‐134)
[5] = SAD Parts A and C, fed conditions (total TS‐134)
[6] = SAD Parts A and C, 5 mg fasted (n = 6)
[7] = SAD Parts A and C, 10 mg fasted (n = 6)
[8] = SAD Parts A and C, 10 mg fed (n = 5)
[9] = SAD Parts A and C, 20 mg fasted (n = 7)
[10] = SAD Parts A and C, 20 mg fed (n = 3)
[11] = SAD Parts A and C, Total TS‐134 fasted (n = 19)
[12] = SAD Parts A and C, Total TS‐134 fed (n = 8)
[13] = SAD, 20 mg fasted treatment group
[14] = MAD Cohort 1, 5–10 mg fed (n = 8)
[15] = MAD Cohort 2, 5–20 mg fed (n = 8)
[16] = MAD Cohort 3, 5–40 mg fed (n = 8)
[17] = MAD Cohort 4, 5–60 mg fed (n = 8)
[18] = MAD Cohort 5, 10–80 mg fed (n = 8)
[19] = MAD Cohort 6, 10–80 mg fed (n = 7)
[20] = MAD, 80 mg MP in Cohort 5, data not shown

## CC(C)[C@@H]1CC[C@@H](C)C[C@H]1OC(=O)O[C@@H](C)OC(=O)[C@H]1[C@@H]2C[C@H](F)[C@@](N)(C(=O)O)[C@@H]21.O=S(=O)(O)c1ccccc1 [TS‐134, (1S,2S,3S,5R,6S)‐2‐amino‐3‐ fluoro‐6‐({(1S)‐1‐[({[(1R,2S,5R)‐5‐methyl‐2‐(propan‐2‐yl)cyclohexyl]oxy}carbonyl)oxy]ethoxy}carbonyl)bicyclo[3.1.0]hexane‐2‐carboxylic acid monobenzenesulfonate]
[1]; SAD Part B, fed 10 mg TS‐134
  incidence of headache: 25.0%
  incidence of post lumbar puncture syndrome: 37.5%
  incidence of somnolence: 25.0%
  incidence of vomiting: 25.0%
[1]; SAD Part B, 10 mg fed (n = 8)
  Abnormal dreams: 0 Number of subjects (%)
  Dizziness: 0 Number of subjects (%)
  Headache: 2 (25.0) Number of subjects (%)
  Insomnia: 0 Number of subjects (%)
  Nausea: 0 Number of subjects (%)
  Number of subjects with at least 1 TEAE: 6 (75.0) Number of subjects (%)
  Post lumbar puncture syndrome: 3 (37.5) Number of subjects (%)
  Pruritus: 0 Number of subjects (%)
  Somnolence: 2 (25.0) Number of subjects (%)
  Total number of TEAEs: 10
  Vomiting: 2 (25.0) Number of subjects (%)
[1]; [4]
  incidence of nausea: 21.1%
  incidence of vomiting: 31.6%
[1]; [5]
  incidence of headache: 25.0%
  incidence of nausea: 25.0%
[1]; [6]
  Abnormal dreams: 0 Number of subjects (%)
  Dizziness: 0 Number of subjects (%)
  Headache: 1 (16.7) Number of subjects (%)
  Insomnia: 0 Number of subjects (%)
  Nausea: 0 Number of subjects (%)
  Number of subjects with at least 1 TEAE: 2 (33.3) Number of subjects (%)
  Post lumbar puncture syndrome: 0 Number of subjects (%)
  Pruritus: 0 Number of subjects (%)
  Somnolence: 0 Number of subjects (%)
  Total number of TEAEs: 2
  Vomiting: 0 Number of subjects (%)
[1]; [7]
  Abnormal dreams: 0 Number of subjects (%)
  Dizziness: 0 Number of subjects (%)
  Headache: 0 Number of subjects (%)
  Insomnia: 0 Number of subjects (%)
  Nausea: 1 (16.7) Number of subjects (%)
  Number of subjects with at least 1 TEAE: 4 (66.7) Number of subjects (%)
  Post lumbar puncture syndrome: 0 Number of subjects (%)
  Pruritus: 0 Number of subjects (%)
  Somnolence: 1 (16.7) Number of subjects (%)
  Total number of TEAEs: 6
  Vomiting: 2 (33.3) Number of subjects (%)
[1]; [8]
  Abnormal dreams: 0 Number of subjects (%)
  Dizziness: 0 Number of subjects (%)
  Headache: 1 (20.0) Number of subjects (%)
  Insomnia: 0 Number of subjects (%)
  Nausea: 1 (20.0) Number of subjects (%)
  Number of subjects with at least 1 TEAE: 3 (60.0) Number of subjects (%)
  Post lumbar puncture syndrome: 0 Number of subjects (%)
  Pruritus: 0 Number of subjects (%)
  Somnolence: 0 Number of subjects (%)
  Total number of TEAEs: 4
  Vomiting: 1 (20.0) Number of subjects (%)
[1]; [9]
  Abnormal dreams: 0 Number of subjects (%)
  Dizziness: 0 Number of subjects (%)
  Headache: 1 (14.3) Number of subjects (%)
  Insomnia: 0 Number of subjects (%)
  Nausea: 3 (42.9) Number of subjects (%)
  Number of subjects with at least 1 TEAE: 5 (71.4) Number of subjects (%)
  Post lumbar puncture syndrome: 0 Number of subjects (%)
  Pruritus: 0 Number of subjects (%)
  Somnolence: 0 Number of subjects (%)
  Total number of TEAEs: 11
  Vomiting: 4 (57.1) Number of subjects (%)
[1]; [10]
  Abnormal dreams: 0 Number of subjects (%)
  Dizziness: 0 Number of subjects (%)
  Headache: 1 (33.3) Number of subjects (%)
  Insomnia: 0 Number of subjects (%)
  Nausea: 1 (33.3) Number of subjects (%)
  Number of subjects with at least 1 TEAE: 1 (33.3) Number of subjects (%)
  Post lumbar puncture syndrome: 0 Number of subjects (%)
  Pruritus: 0 Number of subjects (%)
  Somnolence: 0 Number of subjects (%)
  Total number of TEAEs: 3
  Vomiting: 0 Number of subjects (%)
[1]; [11]
  Abnormal dreams: 0 Number of subjects (%)
  Dizziness: 0 Number of subjects (%)
  Headache: 2 (10.5) Number of subjects (%)
  Insomnia: 0 Number of subjects (%)
  Nausea: 4 (21.1) Number of subjects (%)
  Number of subjects with at least 1 TEAE: 11(57.9) Number of subjects (%)
  Post lumbar puncture syndrome: 0 Number of subjects (%)
  Pruritus: 0 Number of subjects (%)
  Somnolence: 1 (5.3) Number of subjects (%)
  Total number of TEAEs: 19
  Vomiting: 6 (31.6) Number of subjects (%)
[1]; [12]
  Abnormal dreams: 0 Number of subjects (%)
  Dizziness: 0 Number of subjects (%)
  Headache: 2 (25.0) Number of subjects (%)
  Insomnia: 0 Number of subjects (%)
  Nausea: 2 (25.0) Number of subjects (%)
  Number of subjects with at least 1 TEAE: 4 (50.0) Number of subjects (%)
  Post lumbar puncture syndrome: 0 Number of subjects (%)
  Pruritus: 0 Number of subjects (%)
  Somnolence: 0 Number of subjects (%)
  Total number of TEAEs: 7
  Vomiting: 1 (12.5) Number of subjects (%)
[1]; [13]
  reports of severe nausea: 1 report
  reports of severe vomiting: 2 reports
[1]; SAD, single oral dose TS‐134 solution
  dose up to which a single dose was tolerated: up to 10 mg
[1]; both studies
  deaths or serious adverse events: no deaths or serious adverse events
[2]; 14‐day MAD, titration schemes under fed conditions
  dose up to which multiple dose titration was tolerated: up to 80 mg
[2]; [14]
  Abnormal dreams: 0 Number of subjects (%)
  Dizziness: 0 Number of subjects (%)
  Headache: 1 (12.5) Number of subjects (%)
  Insomnia: 0 Number of subjects (%)
  Nausea: 2 (25.0) Number of subjects (%)
  Number of subjects with at least 1 TEAE: 5 (62.5) Number of subjects (%)
  Post lumbar puncture syndrome: 0 Number of subjects (%)
  Pruritus: 0 Number of subjects (%)
  Somnolence: 3 (37.5) Number of subjects (%)
  Total number of TEAEs: 11
  Vomiting: 0 Number of subjects (%)
[2]; [15]
  Abnormal dreams: 0 Number of subjects (%)
  Dizziness: 1 (12.5) Number of subjects (%)
  Headache: 3 (37.5) Number of subjects (%)
  Insomnia: 0 Number of subjects (%)
  Nausea: 3 (37.5) Number of subjects (%)
  Number of subjects with at least 1 TEAE: 5 (62.5) Number of subjects (%)
  Post lumbar puncture syndrome: 0 Number of subjects (%)
  Pruritus: 0 Number of subjects (%)
  Somnolence: 1 (12.5) Number of subjects (%)
  Total number of TEAEs: 17
  Vomiting: 0 Number of subjects (%)
[2]; [16]
  Abnormal dreams: 0 Number of subjects (%)
  Dizziness: 3 (37.5) Number of subjects (%)
  Headache: 3 (37.5) Number of subjects (%)
  Insomnia: 0 Number of subjects (%)
  Nausea: 2 (25.0) Number of subjects (%)
  Number of subjects with at least 1 TEAE: 5 (62.5) Number of subjects (%)
  Post lumbar puncture syndrome: 0 Number of subjects (%)
  Pruritus: 0 Number of subjects (%)
  Somnolence: 1 (12.5) Number of subjects (%)
  Total number of TEAEs: 16
  Vomiting: 1 (12.5) Number of subjects (%)
[2]; [17]
  Abnormal dreams: 2 (25.0) Number of subjects (%)
  Dizziness: 1 (12.5) Number of subjects (%)
  Headache: 5 (62.5) Number of subjects (%)
  Insomnia: 3 (37.5) Number of subjects (%)
  Nausea: 3 (37.5) Number of subjects (%)
  Number of subjects with at least 1 TEAE: 8 (100) Number of subjects (%)
  Post lumbar puncture syndrome: 0 Number of subjects (%)
  Pruritus: 1 (12.5) Number of subjects (%)
  Somnolence: 1 (12.5) Number of subjects (%)
  Total number of TEAEs: 26
  Vomiting: 2 (25.0) Number of subjects (%)
[2]; [18]
  Abnormal dreams: 0 Number of subjects (%)
  Dizziness: 0 Number of subjects (%)
  Headache: 3 (37.5) Number of subjects (%)
  Insomnia: 0 Number of subjects (%)
  Nausea: 3 (37.5) Number of subjects (%)
  Number of subjects with at least 1 TEAE: 7 (87.5) Number of subjects (%)
  Post lumbar puncture syndrome: 0 Number of subjects (%)
  Pruritus: 0 Number of subjects (%)
  Somnolence: 1 (12.5) Number of subjects (%)
  Total number of TEAEs: 30
  Vomiting: 0 Number of subjects (%)
[2]; [19]
  Abnormal dreams: 0 Number of subjects (%)
  Dizziness: 3 (42.9) Number of subjects (%)
  Headache: 1 (14.3) Number of subjects (%)
  Insomnia: 1 (14.3) Number of subjects (%)
  Nausea: 2 (28.6) Number of subjects (%)
  Number of subjects with at least 1 TEAE: 6 (85.7) Number of subjects (%)
  Post lumbar puncture syndrome: 0 Number of subjects (%)
  Pruritus: 3 (42.9) Number of subjects (%)
  Somnolence: 2 (28.6) Number of subjects (%)
  Total number of TEAEs: 25
  Vomiting: 0 Number of subjects (%)
[2]; MAD Total TS‐134 (n = 47)
  Abnormal dreams: 2 (4.3) Number of subjects (%)
  Dizziness: 8 (17.0) Number of subjects (%)
  Headache: 16 (34.0) Number of subjects (%)
  Insomnia: 4 (8.5) Number of subjects (%)
  Nausea: 15 (31.9) Number of subjects (%)
  Number of subjects with at least 1 TEAE: 36(76.6) Number of subjects (%)
  Post lumbar puncture syndrome: 0 Number of subjects (%)
  Pruritus: 4 (8.5) Number of subjects (%)
  Somnolence: 9 (19.1) Number of subjects (%)
  Total number of TEAEs: 125
  Vomiting: 3 (6.4) Number of subjects (%)
[2]; MAD study
  discontinuations due to TEAEs: no discontinuations due to TEAEs
[2]; [20]
  reports of severe anxiety: 1 report
  reports of severe fatigue: 1 report
[2]; MAD, total TS‐134 group
  incidence of dizziness: 17.0%
  incidence of headache: 34.0%
  incidence of nausea: 31.9%
  incidence of somnolence: 19.1%
  incidence of vomiting: 6.4%
[3]
  conversion of the prodrug into MGS0008 after oral administration: rapidly converted into MGS0008
